Data published in the NIST ThermoML archive (doi:10.1021/je500431h).

Experiment: xn = mol fraction of the nth substance listed
Details: 101 kPa, Liquid; for mass density: Pycnometric method; for electrical conductivity: conductivity meter LF 340 and a standard conductivity cell TetraCon

C=CCn1cc[n+](CCOC)c1.O=S(=O)([N-]S(=O)(=O)C(F)(F)F)C(F)(F)F + O=S(=O)([N-]S(=O)(=O)C(F)(F)F)C(F)(F)F.[Li+]
Details | electrical conductivity [S/m] | mass density [kg/m3] | viscosity [mPa·s]
308 K, x2 = 0.176 | – | 1480.1 | 56.2
308 K, x2 = 0.2508 | – | 1505.3 | 72.2
308 K, x2 = 0.3254 | – | 1525.3 | 116.4
308.2 K, x2 = 0.176 | 0.3 | – | –
308.2 K, x2 = 0.4001 | 0.0856 | – | –
308.7 K, x2 = 0 | 0.546 | – | –
308.7 K, x2 = 0.2508 | 0.228 | – | –
308.8 K, x2 = 0.3254 | 0.16 | – | –
308.9 K, x2 = 0.1007 | 0.425 | – | –
309 K, x2 = 0 | – | 1437 | 23.7
309 K, x2 = 0.1007 | – | 1459.7 | 38
309.2 K, x2 = 0.4001 | – | – | 221.6
309.24 K, x2 = 0.4001 | – | 1551.1 | –
313 K, x2 = 0.176 | – | 1475.4 | 44.4
313 K, x2 = 0.2508 | – | 1500.4 | 57.1
313 K, x2 = 0.3254 | – | 1520.3 | 89.4
313.3 K, x2 = 0 | 0.627 | – | –
313.4 K, x2 = 0.4001 | 0.113 | – | –
313.5 K, x2 = 0.3254 | 0.2 | – | –
313.9 K, x2 = 0.176 | 0.372 | – | –
314 K, x2 = 0 | – | 1432.3 | 20.3
314 K, x2 = 0.4001 | – | 1546.3 | 168.3
314.4 K, x2 = 0.1007 | 0.514 | – | –
314.4 K, x2 = 0.2508 | 0.284 | – | –
315 K, x2 = 0.1007 | – | 1453.9 | 27.9
317 K, x2 = 0 | – | 1429.6 | 17.8
317 K, x2 = 0.2508 | – | 1496.4 | 47.8
317 K, x2 = 0.3254 | – | 1516.3 | 75.1
317.9 K, x2 = 0.2508 | 0.327 | – | –
318 K, x2 = 0.176 | – | 1470.7 | 35.8
318 K, x2 = 0.4001 | – | 1542.3 | 138.5
318.1 K, x2 = 0 | 0.72 | – | –
318.1 K, x2 = 0.4001 | 0.141 | – | –
319 K, x2 = 0.3254 | 0.248 | – | –
319.2 K, x2 = 0.1007 | 0.596 | – | –
319.5 K, x2 = 0.1007 | – | 1449.6 | 22.8
319.6 K, x2 = 0.176 | 0.453 | – | –
322.4 K, x2 = 0.176 | 0.493 | – | –
323 K, x2 = 0.176 | – | 1466 | 29.6
323 K, x2 = 0.3254 | – | 1510.4 | 56.8
323.3 K, x2 = 0 | 0.828 | – | –
323.5 K, x2 = 0 | – | 1423.5 | 14.6
323.9 K, x2 = 0.3254 | 0.3 | – | –
324 K, x2 = 0.2508 | – | 1489.5 | 37.4
324 K, x2 = 0.4001 | – | 1536.2 | 100.9
324.1 K, x2 = 0.4001 | 0.183 | – | –
324.4 K, x2 = 0.1007 | 0.694 | – | –
324.6 K, x2 = 0.2508 | 0.41 | – | –
325.2 K, x2 = 0.1007 | – | 1444.2 | 19.6
327 K, x2 = 0.3254 | – | 1506.5 | 49
327.2 K, x2 = 0.1007 | – | 1442.3 | 17.7
327.2 K, x2 = 0.176 | – | 1462 | 25.4
327.5 K, x2 = 0.4001 | 0.214 | – | –
327.9 K, x2 = 0 | 0.935 | – | –
328 K, x2 = 0 | – | 1419.4 | 13.1
328 K, x2 = 0.2508 | – | 1485.6 | 32.3
328 K, x2 = 0.4001 | – | 1532.2 | 82.1
328.5 K, x2 = 0.2508 | 0.467 | – | –
328.7 K, x2 = 0.176 | 0.588 | – | –
328.8 K, x2 = 0.3254 | 0.353 | – | –
328.9 K, x2 = 0.1007 | 0.778 | – | –
332.9 K, x2 = 0 | 1.06 | – | –
333.1 K, x2 = 0.3254 | 0.405 | – | –
333.4 K, x2 = 0.2508 | 0.535 | – | –
334 K, x2 = 0 | – | 1413.9 | 11.2
334 K, x2 = 0.1007 | 0.885 | – | –
334 K, x2 = 0.176 | – | 1455.7 | 20.4
334 K, x2 = 0.2508 | – | 1479.8 | 25.9
334 K, x2 = 0.3254 | – | 1499.7 | 37.1
334 K, x2 = 0.4001 | – | 1526.3 | 63.2
334.2 K, x2 = 0.1007 | – | 1435.7 | 15.3
334.3 K, x2 = 0.4001 | 0.275 | – | –
334.5 K, x2 = 0.176 | 0.691 | – | –
337 K, x2 = 0.3254 | – | 1496.9 | 32
337.4 K, x2 = 0.2508 | 0.6 | – | –
337.6 K, x2 = 0 | 1.18 | – | –
338 K, x2 = 0.176 | – | 1452.1 | 18.2
338 K, x2 = 0.2508 | – | 1475.9 | 22.9
338.1 K, x2 = 0.1007 | – | 1432 | 12.9
338.5 K, x2 = 0 | – | 1409.9 | 10
338.5 K, x2 = 0.3254 | 0.474 | – | –
338.9 K, x2 = 0.176 | 0.76 | – | –
339 K, x2 = 0.1007 | 0.986 | – | –
339 K, x2 = 0.4001 | – | 1521.4 | 54.2
339.3 K, x2 = 0.4001 | 0.323 | – | –
343 K, x2 = 0 | 1.33 | – | –
343 K, x2 = 0.3254 | – | 1491.1 | 27.3
343.2 K, x2 = 0.1007 | – | 1427.3 | 11.4
343.3 K, x2 = 0.3254 | 0.539 | – | –
343.5 K, x2 = 0.2508 | 0.698 | – | –
343.8 K, x2 = 0.176 | 0.858 | – | –
344 K, x2 = 0 | – | 1404.9 | 8.8
344 K, x2 = 0.176 | – | 1446.6 | 15.4
344 K, x2 = 0.4001 | – | 1516.5 | 44.8
344.4 K, x2 = 0.4001 | 0.385 | – | –
344.5 K, x2 = 0.1007 | 1.11 | – | –
345 K, x2 = 0.2508 | – | 1469.2 | 19.2
347 K, x2 = 0.3254 | – | 1487.3 | 24
348 K, x2 = 0 | – | 1401.3 | 8.2
348.1 K, x2 = 0 | 1.48 | – | –
348.2 K, x2 = 0.2508 | 0.784 | – | –
348.3 K, x2 = 0.1007 | 1.19 | – | –
348.5 K, x2 = 0.3254 | 0.62 | – | –
348.6 K, x2 = 0.176 | 0.954 | – | –
348.7 K, x2 = 0.4001 | 0.436 | – | –
349 K, x2 = 0.1007 | – | 1421.9 | 10.3
349 K, x2 = 0.176 | – | 1442 | 13.7
349 K, x2 = 0.2508 | – | 1465.4 | 17.1
349 K, x2 = 0.4001 | – | 1511.6 | 38
352 K, x2 = 0 | 1.6 | – | –
352.5 K, x2 = 0.2508 | 0.858 | – | –
353.3 K, x2 = 0.3254 | 0.694 | – | –
353.5 K, x2 = 0.4001 | 0.498 | – | –
354.2 K, x2 = 0 | – | 1395.8 | 7
354.5 K, x2 = 0.1007 | – | 1416.9 | 9.5
354.9 K, x2 = 0.1007 | 1.35 | – | –
354.9 K, x2 = 0.176 | 1.09 | – | –
355 K, x2 = 0.176 | – | 1436.6 | 11.9
355 K, x2 = 0.2508 | – | 1459.8 | 14.6
355 K, x2 = 0.4001 | – | 1505.8 | 31.7
356 K, x2 = 0.3254 | – | 1478.8 | 18.9
